Target: T1, 53BP1 tandem Tudor domain (TTD) (Homo sapiens, UniProt Q12888)
T1 construct: DEL screens targeting the tandem Tudor domain (TTD) of 53BP1; made in house
Experiment: 53BP1 TR-FRET displacement assay
Format: binding
Conditions: mean ± SD of at least three replicates
From the text: In this work, we test the hypothesis that initializing a structure-based generative AI workflow with validated DEL screening data can rapidly identify novel, potent, and more drug-like compounds from an ultra-large virtual library, outperforming traditional hit-picking strategies. To do so, we present a DEL-driven, integrated virtual screening workflow that combines the HIDDEN GEM platform with the multi-billion-compound Enamine REAL Space (Figure 1). Using data from our recently published DEL screens targeting the tandem Tudor domain (TTD) of 53BP1,[8],[16],[27] we biased our generative structure-guided ML model to identify novel, commercially available compounds from the Enamine REAL Space. All purchased and off-DNA synthesized compounds were experimentally tested using a developed time-resolved fluorescence resonance energy transfer (TR-FRET) displacement assay. This workflow provides a rapid, cost-effective strategy for academic labs and small biotech companies to accelerate hit discovery using focused DEL libraries and to expand beyond the screened chemical space, which is particularly important for smaller-sized DELs.
Reagents, protein expression/purification, DEL production and screening, and TR-FRET screening protocols were previously reported.[16],[27] […]
[Compound], µM [Compound], µM [Compound], µM
[Compound], µM [Compound], µM
Figure S2. 53BP1 TR-FRET displacement assay dose-response curves for compounds identified from
HIDDEN GEM. Each data point represents the mean of three replicates (n=3), with error bars indicating standard
deviation. Dose-response curves were fitted using a four-parameter Hill equation. […]

T1 sequence (Q12888 1484-1603 limits assumed): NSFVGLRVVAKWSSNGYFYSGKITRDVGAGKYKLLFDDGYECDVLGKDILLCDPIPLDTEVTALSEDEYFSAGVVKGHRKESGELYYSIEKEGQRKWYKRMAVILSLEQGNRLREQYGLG

IC50 [µM]	Structure (SMILES)
54 ± 8.5	CN1CCC(Nc2ccccc2NC(=O)c2cccc(F)c2)CC1 [UNC10413800A]
43 ± 0.44	COc1ccc(C(CNC2=NS(=O)(=O)c3ccccc32)N2CCCC2)cc1 (centres unmarked) [UNC10413807A]
22 ± 3.6	CN1CCN(c2ccccc2NC(=O)c2cc3ccccc3[nH]2)CC1 [UNC10413788A]
58 ± 10	CCN1CCN(c2ccccc2NC(=O)c2cc(O)c3ccccc3c2)CC1 [UNC10414641A]
34 ± 3	Cc1ccc(C(CNC2=NS(=O)(=O)c3ccccc32)N2CCCC2)cc1 (centres unmarked) [UNC10414645A]

— doi:10.1101/2025.09.30.679600, “Expansion of DNA-Encoded Library Hits Using Generative Chemistry and Ultra-Large Compound Catalogs” (bioRxiv, 2025)
